According to ChEMBL document CHEMBL1142750, “Gastric cytoprotective activity of ilicic aldehyde: structure-activity relationships” (2005):

What was measured:
Type in all cases: functional
Rattus norvegicus [1] = assay: Gastric cytoprotective effect as ulcerative index was calculated in male wistar rat after 100 mg/kg dosage
Rattus norvegicus [2] = assay: Percent inhibition ethanol induced necrotic damage of gastric mucosa in male wistar rat after dosage; Dose range 25-100 mg/kg
Rattus norvegicus [3] = assay: Gastric cytoprotective effect as ulcerative index was calculated in male wistar rat after 20 mg/kg dosage
Rattus norvegicus [4] = assay: Percent inhibition ethanol induced necrotic damage of gastric mucosa in male wistar rat after 1 hr of contact with synthetic gastric juice; Dose range 25?100 mg/kg
Rattus norvegicus [5] = assay: Gastric cytoprotective effect as ulcerative index was calculated in male wistar rat at 100 mg/kg dose after 2 hr of contact with synthetic gastric juice
Rattus norvegicus [6] = assay: Gastric cytoprotective effect as ulcerative index was calculated in male wistar rat at 100 mg/kg dose after 1 hr of contact with synthetic gastric juice
Rattus norvegicus [7] = assay: Percent inhibition ethanol induced necrotic damage of gastric mucosa in male wistar rat after 2 hr of contact with synthetic gastric juice; Dose range 25?100 mg/kg

Compound	Ulcerative index (Rattus norvegicus [1])	Inhibition of damage (Rattus norvegicus [2])	further results
C=C(C=O)[C@@H]1CC[C@@]2(C)CCCC(C)=C2C1	4.62	5%	
C=C(C=O)[C@@H]1CC[C@@]2(C)CCC[C@@](C)(O)C2C1 (some centres not stated)	0.2	96%	
C=C(CO)[C@@H]1CC[C@@]2(C)CCC[C@@](C)(O)C2C1 (some centres not stated)	4.8	1%	
C=C(C(=O)O)[C@@H]1CCC2=CC=C[C@H](C)[C@@]2(C)C1		23%	Ulcerative index (Rattus norvegicus [3]): 3.7
C=C1C(=O)O[C@H]2C1CCC(C)=C1C(=O)C=C(C)[C@@H]12 (some centres not stated)	0.16	97%	
C=C(C=O)[C@@H]1CC[C@@]2(C)CCC[C@@](C)(OC(=O)C(F)(F)F)C2C1 (some centres not stated)			Inhibition of damage (Rattus norvegicus [4]): 86%; Ulcerative index (Rattus norvegicus [5]): 0.16; Ulcerative index (Rattus norvegicus [6]): 0.66; Inhibition of damage (Rattus norvegicus [7]): 96%
C=C(C=O)[C@@H]1CC[C@@]2(C)CCC[C@@](C)(O[Si](C)(C)C)C2C1 (some centres not stated)	2.5	48%	
C=C1C(=O)O[C@]23C[C@H]1CC[C@@]2(C)CCC[C@H]3C	2.5	48%	
C=C1C(=O)O[C@]23C[C@H]1CC[C@@]2(C)CCCC3=C	3.37	30%	
C=C1CCC[C@]2(C)CC[C@@H](C(=C)C=O)CC12 (some centres not stated)	3.75	23%	
C=C(C(=O)O)[C@@H]1CC[C@@]2(C)CCC[C@@](C)(O)C2C1 (some centres not stated)	4.62	5%	
C=C(C(=O)O)[C@@H]1CC[C@@]2(C)CCCC(C)=C2C1	4	17%	
COc1ccc2[nH]c([S+]([O-])Cc3ncc(C)c(OC)c3C)nc2c1 (configuration not stated) [OMEPRAZOLE]		38%	Ulcerative index (Rattus norvegicus [3]): 3
C=C(C(=O)OC)[C@@H]1CCC2=CC(=O)C[C@H](C)[C@@]2(C)C1 [TESSARIC ACID METHYL ESTER]	4.62	5%	
C=C(C(=O)O)[C@@H]1CCC2=CC(=O)C[C@H](C)[C@@]2(C)C1 [TESSARIC ACID]	4.62	5%	
